Results: patent EP0745595A1, “3-(3-Aryloxyphenyl)-1-(substituted methyl)-s-triazine-2,4,6-oxo or thiotrione herbicidal agents” (American Cyanamid Company, priority 1995, dated 1996)

What was measured:
Assay type in all cases: in vivo
[1] = system: ABUTILON THEOPHRASTI, MEDIC.; test: Preemergence herbicidal evaluation, ABUTH (Velvetleaf); details: for ABUTH rating: four to five weeks after treatment; for ABUTH herbicidal rating: rated four to five weeks after treatment
Procedure, shortened: (§1)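 Preemergence, greenhouse: seed + potting soil sown on ~1 inch soil in cups; aqueous acetone spray, ~0.125–0.50 kg/ha equivalent; rated 0-9 vs control at 4–5 wk.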

[2] = system: CYPERUS SEROTINUS, ROTTB.; test: Preemergence weed control under flooded paddy conditions, CYPSE (Flatsedge); details: for CYPSE herbicidal rating: preemergence weeds, rated three to four weeks after treatment
Procedure, shortened: (§2)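 Flooded paddy preemergence test: seeds/propagating organs in top 0.5 cm silt loam, water held 1.5-3 cm above soil. Dosing by pipette into flood water, aqueous/acetone 50/50 v/v, ~0.5, 0.25, 0.125, 0.063 kg/ha a.i. Greenhouse; read at 3-4 wk, 0-9 visual scale.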

CASSIA OBTUSIFOLIA, L. = test: Preemergence herbicidal evaluation, CASOB (Sicklepod); details: for CASOB herbicidal rating: rated four to five weeks after treatment; for CASOB rating: four to five weeks after treatment
Procedure, shortened: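 Seeds of various monocot and dicot plants, including sicklepod, were each mixed with potting soil and sown on roughly one inch of soil in separate pint cups for preemergence testing. Treated cups were kept on greenhouse benches, watered and maintained conventionally. Four to five weeks after treatment, each cup was visually rated on a 0-9 scale against a control.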

[3] = system: GLYCINE MAX(L) MERR. CV. WILLIAMS; test: Preemergence herbicidal evaluation, GLXMAW (Soybean, Williams); details: rated four to five weeks after treatment
Procedure, shortened: as §1

ZEA MAYS L. = test: Preemergence herbicidal evaluation, ZEAMX (Corn, Field); details: rated four to five weeks after treatment
Procedure, shortened: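 Corn (Zea mays) seeds were mixed with potting soil and planted on about one inch of soil in pint cups, then treated preemergence. Cups were kept on greenhouse benches, watered and maintained conventionally, and after four to five weeks were visually rated on a 0-9 scale versus an untreated control.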

[4] = system: ECHINOCHLOA ORYZOIDES (ARD.)FRITSCH; test: Preemergence weed control under flooded paddy conditions, ECHORC (Watergrass (Calif.)); details: for ECHORC herbicidal rating: preemergence weeds, rated three to four weeks after treatment
Procedure, shortened: as §2

CYPERUS IRIA = test: Preemergence weed control under flooded paddy conditions, CYPIR (Rice Flatsedge); details: for CYPIR herbicidal rating: preemergence weeds, rated three to four weeks after treatment
Procedure, shortened: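 Seeds or propagating organs of rice flatsedge were planted in the top 0.5 cm of silt loam soil in 32 oz. plastic containers, 10.5 cm across and without drainage holes. Water was kept 1.5 to 3 cm above the soil throughout. Treated containers were kept on greenhouse benches, and herbicidal effect was visually rated on a 0-9 scale against a control.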

[…], PRESL. = Preemergence weed control under flooded paddy conditions, MOOVA (Monochoria); details: for MOOVA herbicidal rating: preemergence weeds, rated three to four weeks after treatment
Procedure, shortened: as §2

SAGITTARIA PYGMAEA, L. = test: Preemergence weed control under flooded paddy conditions, SAGPY (Arrowhead (Pygmaea)); details: 0.500 kg/ha, preemergence, 3-4 weeks after treatment
Procedure, shortened: as §2

GALIUM APARINE [5] = test: Postemergence herbicidal evaluation, GALAP (Galium); design: key to GALAP rating / Herbicidal effect rating, GALAP / GALAP: 0-9 visual rating scale vs untreated control; details: for GALAP, herbicide rating (0-9): rated four to five weeks after treatment, averaged
Procedure, shortened: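 Galium (GALAP) seedlings were raised in jiffy flats for about two weeks, then sprayed with test compounds dispersed in 50/50 acetone/water containing 0.5% TWEEN®20, delivered through a nozzle at 40 psi. Plants were kept on greenhouse benches and visually rated 0-9 against a control four to five weeks later; repeat tests were averaged.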

[6] = system: GLYCINE MAX(L) MERR. CV. WILLIAMS; test: Postemergence herbicidal evaluation, GLXMAW (Soybean, Williams); design: key to GLXMAW rating / Herbicidal effect rating, GLXMAW / GLXMAW: 0-9 visual rating scale vs untreated control
Procedure, shortened: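 Soybean seedlings (Williams) were raised in jiffy flats for roughly two weeks, then sprayed postemergence through a nozzle at 40 psi with test compound dispersed in 50/50 acetone/water containing 0.5% TWEEN®20. Treated plants were kept on greenhouse benches under normal care and visually rated on a 0-9 scale four to five weeks later.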

[7] = system: ORYZA SATIVA, L. TEBONNET; test: Postemergence herbicidal evaluation, ORYSAT (Rice, Tebonnet); design: key: 0-9 visual rating scale vs untreated control
Procedure, shortened: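 Rice (Tebonnet) seedlings raised in jiffy flats for roughly two weeks were sprayed postemergence at 40 psi with compound dispersed in 50/50 acetone/water containing 0.5% TWEEN®20. The plants were then kept on greenhouse benches under standard care and visually scored on a 0-9 scale against a control four to five weeks after treatment.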

GALIUM APARINE [8] = test: Preemergence herbicidal evaluation, GALAP (Galium); details: four to five weeks after treatment
Procedure, shortened: as §1

[9] = 0.500 kg/ha, preemergence, 3-4 weeks after treatment

COC(=O)Cn1c(=O)[nH]c(=O)n(-c2cc(Oc3ccc(C(F)(F)F)cc3Cl)ccc2[N+](=O)[O-])c1=O [Compound 8, Methyl 3-{5-[(2-chloro-α,α,α-trifluoro-p-tolyl)oxy]-2-nitrophenyl}tetrahydro-2,4,6-trioxo-s-triazine-1(2H)-acetate]
ABUTH rating ([1]; Rate 0.125 kg/ha): 9.0 | ABUTH rating ([1]; Rate 0.250 kg/ha): 9.0 | ABUTH rating ([1]; Rate 0.500 kg/ha): 9.0 | CYPSE herbicidal rating ([2]; Rate 0.063 kg/ha): 0.0 | CYPSE herbicidal rating ([2]; Rate 0.125 kg/ha): 0.0 | CYPSE herbicidal rating ([2]; Rate 0.250 kg/ha): 0.0

COC(=O)Cn1c(=O)n(C)c(=O)n(-c2cc(Oc3ccc(SC)cc3Cl)ccc2[N+](=O)[O-])c1=O [Compound 34, Methyl 3-{5-[2-chloro-4-(methylthio)-phenoxy]-2-nitrophenyl}tetrahydro-5-methyl-2,4,6-trioxo-s-triazine-1(2H)-acetate]
ABUTH herbicidal rating ([1]; Rate 0.125 kg/ha): 0.0 | ABUTH herbicidal rating ([1]; Rate 0.250 kg/ha): 0.0 | ABUTH herbicidal rating ([1]; Rate 0.500 kg/ha): 0.0 | CASOB herbicidal rating (CASSIA OBTUSIFOLIA, L.; Rate 0.125 kg/ha): 0.0 | CASOB herbicidal rating (CASSIA OBTUSIFOLIA, L.; Rate 0.250 kg/ha): 0.0 | CASOB herbicidal rating (CASSIA OBTUSIFOLIA, L.; Rate 0.500 kg/ha): 0.0 | GLXMAW herbicidal rating ([3]; Rate 0.125 kg/ha): 0.0 | GLXMAW herbicidal rating ([3]; Rate 0.250 kg/ha): 0.0 | GLXMAW herbicidal rating ([3]; Rate 0.500 kg/ha): 0.0 | ZEAMX herbicidal rating (ZEA MAYS L.; Rate 0.125 kg/ha): 0.0 | ZEAMX herbicidal rating (ZEA MAYS L.; Rate 0.250 kg/ha): 0.0 | ZEAMX herbicidal rating (ZEA MAYS L.; Rate 0.500 kg/ha): 0.0 | Herbicidal effect rating, ECHORC [4, 9]: 0.0 | Herbicidal effect rating, CYPIR (CYPERUS IRIA; [9]): 0.0 | Herbicidal effect rating, CYPSE [2, 9]: 0.0 | Herbicidal effect rating, MOOVA ([…], PRESL.; [9]): 0.0 | Herbicidal effect rating, SAGPY (SAGITTARIA PYGMAEA, L.): 0.0

COC(=O)Cn1c(=O)n(C)c(=O)n(-c2cc(Oc3c(F)cc(C(F)(F)F)cc3Cl)ccc2Br)c1=O [Compound 2, Methyl 3-{2-bromo-5-[(2-chloro-α,α,α,6-tetrafluoro-p-tolyl)oxy]phenyl}tetrahydro-5-methyl-2,4,6-trioxo-s-triazine-1(2H)-acetate]
Herbicidal effect rating, GALAP (GALIUM APARINE [5]; 0.063 kg/ha): 9.0 | Herbicidal effect rating, GALAP (GALIUM APARINE [5]; 0.125 kg/ha): 9.0 | Herbicidal effect rating, GALAP (GALIUM APARINE [5]; 0.250 kg/ha): 9.0 | Herbicidal effect rating, GALAP (GALIUM APARINE [5]; 0.500 kg/ha): 9.0 | GALAP, herbicide rating (0-9) (GALIUM APARINE [5]; Rate 0.125 kg/ha): 9.0 | GALAP, herbicide rating (0-9) (GALIUM APARINE [5]; Rate 0.250 kg/ha): 9.0 | GALAP, herbicide rating (0-9) (GALIUM APARINE [5]; Rate 0.500 kg/ha): 9.0 | Herbicidal effect rating, GLXMAW ([6]; 0.063 kg/ha): 6.9 | Herbicidal effect rating, GLXMAW ([6]; 0.125 kg/ha): 7.2 | Herbicidal effect rating, GLXMAW ([6]; 0.250 kg/ha): 8.0 | Herbicidal effect rating, GLXMAW ([6]; 0.500 kg/ha): 8.3 | Herbicidal effect rating, ORYSAT ([7]; 0.063 kg/ha): 6.3 | Herbicidal effect rating, ORYSAT ([7]; 0.125 kg/ha): 6.3 | Herbicidal effect rating, ORYSAT ([7]; 0.250 kg/ha): 7.0 | Herbicidal effect rating, ORYSAT ([7]; 0.500 kg/ha): 7.5 | CASOB rating (CASSIA OBTUSIFOLIA, L.; Rate 0.125 kg/ha): 9.0 | CASOB rating (CASSIA OBTUSIFOLIA, L.; Rate 0.250 kg/ha): 9.0 | CASOB rating (CASSIA OBTUSIFOLIA, L.; Rate 0.500 kg/ha): 9.0 | GALAP rating (GALIUM APARINE [8]; Rate 0.125 kg/ha): 9.0 | GALAP rating (GALIUM APARINE [8]; Rate 0.250 kg/ha): 9.0 | GALAP rating (GALIUM APARINE [8]; Rate 0.500 kg/ha): 9.0 | ECHORC herbicidal rating ([4]; Rate 0.063 kg/ha): 9.0 | ECHORC herbicidal rating ([4]; Rate 0.125 kg/ha): 9.0 | ECHORC herbicidal rating ([4]; Rate 0.250 kg/ha): 9.0 | ECHORC herbicidal rating ([4]; Rate 0.500 kg/ha): 9.0 | CYPIR herbicidal rating (CYPERUS IRIA; Rate 0.063 kg/ha): 9.0 | CYPIR herbicidal rating (CYPERUS IRIA; Rate 0.125 kg/ha): 9.0 | CYPIR herbicidal rating (CYPERUS IRIA; Rate 0.250 kg/ha): 9.0 | CYPIR herbicidal rating (CYPERUS IRIA; Rate 0.500 kg/ha): 9.0 | MOOVA herbicidal rating ([…], PRESL.; Rate 0.063 kg/ha): 9.0 | MOOVA herbicidal rating ([…], PRESL.; Rate 0.125 kg/ha): 9.0 | MOOVA herbicidal rating ([…], PRESL.; Rate 0.250 kg/ha): 9.0 | MOOVA herbicidal rating ([…], PRESL.; Rate 0.500 kg/ha): 9.0
